Assay results taken from patent US20030022158A1, “Peptides from the TT virus sequence and monospecific antibodies binding to the TT virus” (priority 1999, published 2003).

Legend:
[1] = tested on: human IgG antibodies in human serum samples; assay: EIA of human antibody reactivities to overlapping synthetic peptides of TTV ORF1 and ORF2 (Tables 2 and 3); assay type: binding; conditions: for optical density (OD) at 405 nm: serum diluted 1:100, OD over 0.500 considered positive
In short: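 Human serum diluted 1:100 was tested for IgG binding to 18-residue overlapping TTV peptides coated at 10 μg/ml (pH 9.6 carbonate, 48 h). Blocking buffer held BSA, goat serum and Tween 20. Alkaline phosphatase anti-human IgG gave a signal measured as OD at 405 nm.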

[2] = tested on: human antibodies in human serum samples; assay: EIA reactivities of three human serum samples with deletion and alanine substitution analogues of SEQ ID NO: 1 (Table 6); assay type: binding; conditions: positive = more than 50% of the reactivity of the original peptide
Protocol: The EIAs used to identify which peptides interacted with human sera followed protocols known in the art. (See Zhang et al., J Gen Virol, 78:2735-2746 (1997), herein expressly incorporated by reference in its entirety). Briefly, microplates (Nunc, Denmark) were coated for 48 hours with synthetic peptides at a concentration of 10 μg/ml in 0.05M sodium carbonate buffer pH 9.6. After blocking for 2 hours at room temperature with phosphate buffered saline containing 1% bovine serum albumin, 2% goat serum and 0.05% Tween 20 (dilution buffer) the plates were incubated with human sera diluted 1:100 in dilution buffer. Bound human IgG was detected by incubation with anti-human IgG antibodies conjugated to alkaline phosphatase (Sigma Chemicals, St. Louis, Mo.). The plates were developed by the addition of […] (Sigma) and the optical densities were determined at 405 nm.
The reactivity to the TATTTTYAYPGTNRPPV (SEQ ID NO: 1) peptide was further characterized by mapping the reactivity of deletion and substitution peptide analogues.

[3] = human serum sample 1, negative for TTV DNA by PCR
[4] = human serum sample 2, negative for TTV DNA by PCR
[5] = human serum sample 3, negative for TTV DNA by PCR
[6] = human serum sample 4, negative for TTV DNA by PCR
[7] = human serum sample 5, negative for TTV DNA by PCR
[8] = human serum sample 6, negative for TTV DNA by PCR
[9] = human serum sample 7, negative for TTV DNA by PCR
[10] = human serum sample 9, positive for TTV DNA by PCR
[11] = human serum sample 11, negative for TTV DNA by PCR
[12] = human serum sample 18, positive for TTV DNA by PCR
[13] = human serum sample 36, positive for TTV DNA by PCR
[14] = human serum sample 48, positive for TTV DNA by PCR
[15] = human serum sample 98, positive for TTV DNA by PCR
[16] = human serum sample 110, positive for TTV DNA by PCR
[17] = human serum sample 155, positive for TTV DNA by PCR
[18] = human serum sample 157, positive for TTV DNA by PCR

Substance	optical density (OD) at 405 nm [1, 3]	optical density (OD) at 405 nm [1, 4]	optical density (OD) at 405 nm [1, 5]	optical density (OD) at 405 nm [1, 6]	optical density (OD) at 405 nm [1, 7]	optical density (OD) at 405 nm [1, 8]	optical density (OD) at 405 nm [1, 9]	optical density (OD) at 405 nm [1, 10]	optical density (OD) at 405 nm [1, 11]	optical density (OD) at 405 nm [1, 12]	optical density (OD) at 405 nm [1, 13]	optical density (OD) at 405 nm [1, 14]	optical density (OD) at 405 nm [1, 15]	optical density (OD) at 405 nm [1, 16]	optical density (OD) at 405 nm [1, 17]	optical density (OD) at 405 nm [1, 18]	OD at 405 nm, reactivity of human serum sample P4 [2]	OD at 405 nm, reactivity of human serum sample P7 [2]	OD at 405 nm, reactivity of human serum sample P36 [2]	also measured
DQNIHMNARLLIRSPFT (Peptide Immunogen) [compound 50, overlapping synthetic peptide of TTV ORF1]	0.07 OD	0.09 OD	0.08 OD	0.09 OD	0.08 OD	0.86 OD	0.29 OD	0.08 OD	0.18 OD	0.07 OD	0.07 OD	0.07 OD	0.10 OD	0.20 OD	0.63 OD	0.46 OD	0.836 OD	1.769 OD	0.850 OD	human reactivity to peptide (reactive peptides within ORF1) ([1]; tested human sera, EIA): Reactive
peptide 1: overlapping synthetic peptide of TTV ORF1 (TATTTTYAYPGTNRPPV)	0.00 OD	0.00 OD	0.00 OD	0.00 OD	0.00 OD	0.00 OD	0.00 OD	0.00 OD	0.00 OD	0.00 OD	0.00 OD	0.00 OD	0.00 OD	0.00 OD	0.00 OD	0.00 OD	0.839 OD	1.845 OD	0.825 OD	optical density (OD) at 405 nm, EIA reactivity of human serum sample 1 ([1]; serum sample 1, negative for TTV DNA by PCR, serum 1:100, peptide coated 10 μg/ml, OD over 0.500 positive): 0.09 OD; optical density (OD) at 405 nm, EIA reactivity of human serum sample 2 ([1]; serum sample 2, negative for TTV DNA by PCR, serum 1:100, peptide coated 10 μg/ml, OD over 0.500 positive): 0.10 OD; optical density (OD) at 405 nm, EIA reactivity of human serum sample 3 ([1]; serum sample 3, negative for TTV DNA by PCR, serum 1:100, peptide coated 10 μg/ml, OD over 0.500 positive): 0.13 OD; optical density (OD) at 405 nm, EIA reactivity of human serum sample 4 ([1]; serum sample 4, negative for TTV DNA by PCR, serum 1:100, peptide coated 10 μg/ml, OD over 0.500 positive): 0.11 OD; optical density (OD) at 405 nm, EIA reactivity of human serum sample 5 ([1]; serum sample 5, negative for TTV DNA by PCR, serum 1:100, peptide coated 10 μg/ml, OD over 0.500 positive): 0.10 OD; optical density (OD) at 405 nm, EIA reactivity of human serum sample 6 ([1]; serum sample 6, negative for TTV DNA by PCR, serum 1:100, peptide coated 10 μg/ml, OD over 0.500 positive): 0.16 OD; optical density (OD) at 405 nm, EIA reactivity of human serum sample 7 ([1]; serum sample 7, negative for TTV DNA by PCR, serum 1:100, peptide coated 10 μg/ml, OD over 0.500 positive): 0.09 OD; optical density (OD) at 405 nm, EIA reactivity of human serum sample 9 ([1]; serum sample 9, positive for TTV DNA by PCR, serum 1:100, peptide coated 10 μg/ml, OD over 0.500 positive): 0.08 OD; optical density (OD) at 405 nm, EIA reactivity of human serum sample 11 ([1]; serum sample 11, negative for TTV DNA by PCR, serum 1:100, peptide coated 10 μg/ml, OD over 0.500 positive): 0.12 OD; optical density (OD) at 405 nm, EIA reactivity of human serum sample 18 ([1]; serum sample 18, positive for TTV DNA by PCR, serum 1:100, peptide coated 10 μg/ml, OD over 0.500 positive): 0.08 OD; optical density (OD) at 405 nm, EIA reactivity of human serum sample 36 ([1]; serum sample 36, positive for TTV DNA by PCR, serum 1:100, peptide coated 10 μg/ml, OD over 0.500 positive): 0.09 OD; optical density (OD) at 405 nm, EIA reactivity of human serum sample 48 ([1]; serum sample 48, positive for TTV DNA by PCR, serum 1:100, peptide coated 10 μg/ml, OD over 0.500 positive): 0.08 OD; optical density (OD) at 405 nm, EIA reactivity of human serum sample 98 ([1]; serum sample 98, positive for TTV DNA by PCR, serum 1:100, peptide coated 10 μg/ml, OD over 0.500 positive): 0.08 OD; optical density (OD) at 405 nm, EIA reactivity of human serum sample 110 ([1]; serum sample 110, positive for TTV DNA by PCR, serum 1:100, peptide coated 10 μg/ml, OD over 0.500 positive): 0.08 OD; optical density (OD) at 405 nm, EIA reactivity of human serum sample 155 ([1]; serum sample 155, positive for TTV DNA by PCR, serum 1:100, peptide coated 10 μg/ml, OD over 0.500 positive): 0.14 OD; optical density (OD) at 405 nm, EIA reactivity of human serum sample 157 ([1]; serum sample 157, positive for TTV DNA by PCR, serum 1:100, peptide coated 10 μg/ml, OD over 0.500 positive): 0.14 OD
